Laboratory results as given in the Kinase Knowledgebase extract (Sharma et al. 2016).

Target: PIK3CG (human) (UniProt P48736)
Assay: Assessment of PIK3CG Kinase Activity

Chain of PIK3CG (human) (P48736 whole entry, looked up): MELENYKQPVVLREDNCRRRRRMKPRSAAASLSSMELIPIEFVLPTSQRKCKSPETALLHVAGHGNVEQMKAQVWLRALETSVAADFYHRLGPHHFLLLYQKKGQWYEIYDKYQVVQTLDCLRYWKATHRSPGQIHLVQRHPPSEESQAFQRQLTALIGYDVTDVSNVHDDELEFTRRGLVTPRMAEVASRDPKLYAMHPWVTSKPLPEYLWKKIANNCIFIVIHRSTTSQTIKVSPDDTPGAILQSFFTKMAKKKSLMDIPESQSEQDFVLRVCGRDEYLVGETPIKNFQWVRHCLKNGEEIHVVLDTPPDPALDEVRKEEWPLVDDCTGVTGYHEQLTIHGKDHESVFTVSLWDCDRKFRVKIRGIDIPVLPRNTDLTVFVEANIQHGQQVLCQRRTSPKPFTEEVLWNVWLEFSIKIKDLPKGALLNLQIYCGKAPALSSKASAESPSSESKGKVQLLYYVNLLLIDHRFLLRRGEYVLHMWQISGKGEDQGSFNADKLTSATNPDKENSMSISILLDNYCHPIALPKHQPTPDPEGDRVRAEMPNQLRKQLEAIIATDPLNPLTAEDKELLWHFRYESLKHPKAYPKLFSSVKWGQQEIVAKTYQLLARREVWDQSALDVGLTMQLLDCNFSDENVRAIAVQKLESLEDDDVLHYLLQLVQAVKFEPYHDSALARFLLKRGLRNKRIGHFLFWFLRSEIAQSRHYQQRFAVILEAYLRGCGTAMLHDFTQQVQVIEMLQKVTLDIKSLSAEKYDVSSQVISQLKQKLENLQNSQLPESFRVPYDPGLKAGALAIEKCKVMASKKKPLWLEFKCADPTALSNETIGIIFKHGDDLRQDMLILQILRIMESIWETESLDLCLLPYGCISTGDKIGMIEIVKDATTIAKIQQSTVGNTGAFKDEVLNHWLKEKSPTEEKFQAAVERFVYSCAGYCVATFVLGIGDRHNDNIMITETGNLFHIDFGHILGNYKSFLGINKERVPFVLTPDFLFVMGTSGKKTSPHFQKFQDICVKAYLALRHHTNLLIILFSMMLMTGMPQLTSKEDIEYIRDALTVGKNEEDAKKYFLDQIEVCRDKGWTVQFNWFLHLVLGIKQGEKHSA

IC50 [nM]	SMILES
< 800	CC(=O)Nc1nc2c(s1)-c1c(cnn1-c1ccc(CC(=O)NCCN3CCCC3=O)cc1)CC2
< 800	CC(=O)Nc1nc2c(s1)-c1c(cnn1-c1ccc(S(=O)(=O)N(C)CCN(C)C)cc1)CC2
< 800	CC(=O)Nc1nc2c(s1)-c1c(cnn1-c1ccc(C(=O)N[C@@H](Cc3ccccc3)C(N)=O)cc1Cl)CC2
< 800	CC(=O)Nc1nc2c(s1)-c1c(cnn1-c1ccc(C(=O)N[C@@H]3CCc4nc(N)sc4C3)cc1)CC2
< 800	CC(=O)Nc1nc2c(s1)-c1c(cnn1-c1ccc(C(=O)N[C@H]3CC[C@H](N4CCCCC4)CC3)cc1)CC2
< 800	CC(=O)Nc1nc2c(s1)-c1c(cnn1-c1ccc(C(=O)N3CCCC(O)C3)cc1)CC2 (stereo unspecified)
< 800	CC(=O)Nc1nc2c(s1)-c1c(cnn1-c1ccc(C(=O)NCCO)cc1)CC2
< 800	CC(=O)Nc1nc2c(s1)-c1c(cnn1-c1ccc(C(=O)N[C@H]3CC[C@@H](N4CCOCC4)CC3)cc1)CC2
< 800	CC(=O)Nc1nc2c(s1)-c1c(cnn1-c1ccc(CC(=O)NCC#Cc3ccncc3)cc1)CC2
< 800	CC(=O)Nc1nc2c(s1)-c1c(cnn1-c1cc(C)ccc1C)CC2
< 800	CC(=O)Nc1nc2c(s1)-c1c(cnn1-c1cccc(C(F)(F)F)c1)CC2
< 800	COc1ccc(-n2ncc3c2-c2sc(NC(C)=O)nc2C3)cc1
< 800	COc1cccc(-n2ncc3c2-c2sc(NC(C)=O)nc2CC3)c1
< 800	CC(=O)Nc1nc2c(s1)-c1c(c(N)nn1-c1ccccc1)CC2
< 800	CC(=O)Nc1nc2c(s1)-c1c(cnn1-c1ccc(CC(=O)N3CCc4cn[nH]c4C3)cc1)CC2
< 800	CC(=O)Nc1nc2c(s1)-c1c(cnn1-c1ccc(C(=O)N[C@H](Cc3cc4ccccc4[nH]3)C(N)=O)cc1Cl)CC2
< 800	CC(=O)Nc1nc2c(s1)-c1c(cnn1-c1ccc(C(=O)N3C[C@@H](C)O[C@@H](C)C3)cc1)CC2
< 800	CC(=O)Nc1nc2c(s1)-c1c(cnn1-c1cccc(C)c1C)CC2

IC50 [nM]	SMILES
< 800	CC(=O)Nc1nc2c(s1)-c1c(cnn1-c1ccc(C(=O)NCCc3c[nH]cn3)cc1)CC2
< 800	CC(=O)Nc1nc2c(s1)-c1c(c(-c3ccoc3)nn1-c1ccccc1)CC2
< 800	CC(=O)Nc1nc2c(s1)-c1c(cnn1-c1ccc(CC(=O)N(C)C)cc1)CC2
< 800	CC(=O)Nc1nc2c(s1)-c1c(cnn1-c1ccc(F)cc1F)CC2
< 800	CC(=O)Nc1nc2c(s1)-c1c(cnn1-c1ccncc1)CC2
< 800	CCCC(=O)n1ncc2c1-c1sc(NC(C)=O)nc1CC2
< 800	CC(=O)Nc1nc2c(s1)-c1c(cnn1-c1ccc(C(=O)N3CCC(CO)CC3)cc1)CC2
< 800	CC(=O)Nc1nc2c(s1)-c1c(cnn1-c1cccc(Cl)c1)C2
< 800	COc1ccc(-n2ncc3c2-c2sc(NC(C)=O)nc2CCC3)cc1
< 800	CC(=O)Nc1nc2c(s1)-c1c(cnn1-c1ccc(CC(=O)N3CCS(=O)(=O)CC3)cc1)CC2
< 800	CC(=O)Nc1nc2c(s1)-c1c(cnn1-c1ccc(C(=O)N[C@@H](CC(=O)O)C(N)=O)cc1Cl)CC2
< 800	CC(=O)Nc1nc2c(s1)-c1c(cnn1-c1ccc(C(=O)NCc3ncc[nH]3)cc1)CC2
< 800	CC(=O)Nc1nc2c(s1)-c1c(cnn1-c1ccc(C(=O)N[C@@H]3CCOC3=O)cc1)CC2
< 800	CC(=O)Nc1nc2c(s1)-c1c(cnn1-c1ccc(C(=O)N3CCC(N4CCOCC4)CC3)cc1)CC2
< 800	CC(=O)Nc1nc2c(s1)-c1c(cnn1-c1ccc(CC(=O)N3CCC4(CC3)CNC(=O)O4)cc1)CC2
< 800	CC(=O)Nc1nc2c(s1)-c1c(cnn1-c1ccc(C(=O)NCC3CC3)cc1)CC2
< 800	CC(=O)Nc1nc2c(s1)-c1c(cnn1-c1ccc(C(=O)NCCN(C)C)cc1)CC2
< 800	CC(=O)Nc1nc2c(s1)-c1c(cnn1-c1ccccc1Cl)CC2

More lines, now with the values behind:

SMILES	IC50 [nM]
CCSc1ncc2c(n1)-c1sc(NC(C)=O)nc1CC2	< 800
O=CNc1nc2c(s1)-c1nc(-c3ccccc3)ncc1CC2	< 800
CC(=O)Nc1nc2c(s1)-c1nc(-c3ccccc3C)ncc1CC2	< 800
CC(=O)Nc1nc2c(s1)-c1c(cnn1-c1ccccc1F)C2	< 800
CCCn1cc2c(n1)-c1sc(NC(C)=O)nc1CC2	< 800
CC(=O)Nc1nc2c(s1)-c1c(c(-c3ccccn3)nn1-c1ccccc1C)CC2	< 800
CC(=O)Nc1nc2c(s1)-c1c(c(-c3ccccn3)nn1-c1ccccc1C(F)(F)F)CC2	< 800
CC(=O)Nc1nc2c(s1)-c1c(c(-c3ccccc3)nn1-c1ccccc1Br)CC2	< 800
CC(=O)Nc1nc2c(s1)-c1c(c(C)nn1-c1ccccc1Cl)CC2	< 800
CC(=O)Nc1nc2c(s1)-c1nc(N3CCCC(CNC(=O)OC(C)(C)C)C3)ncc1CC2 (stereo unspecified)	< 800
CC(=O)Nc1nc2c(s1)-c1c(c(C(N)=O)nn1-c1ccccc1Cl)CC2	< 800
Cc1ccccc1-n1ncc2c1C1SC(N)=NC1C2 (stereo unspecified)	< 800
CC(=O)Nc1nc2c(s1)-c1c(c(-c3ccco3)nn1-c1ccccc1Cl)CC2	< 800
Nc1nc2c(s1)-c1c(cnn1-c1ccccc1)C2	< 800
Nc1nc2c(s1)-c1c(cnn1-c1ccc([N+](=O)[O-])cc1)CC2	< 800
COC(=O)c1nn(-c2ccccc2C(F)(F)F)c2c1CCc1nc(NC(C)=O)sc1-2	< 800
CC(=O)Nc1nc2c(s1)-c1c(c(-c3ccoc3)nn1-c1ccccc1Cl)CC2	< 800
CC(=O)Nc1nc2c(s1)-c1nc(C(C)C)ncc1CC2	< 800
CC(=O)Nc1nc2c(s1)-c1c(c(C(=O)O)nn1-c1ccccc1Cl)CC2	< 800
CC(=O)Nc1nc2c(s1)-c1c(c(NC(=O)NC(C)C)nn1-c1ccccc1Cl)CC2	< 800
CN(C)C(=O)Nc1nc2c(s1)-c1nc(-c3ccccc3)ncc1CC2	< 800
Nc1nc2c(s1)-c1nc(-c3ccccc3)ncc1CC2	< 800
CC(=O)Nc1nc2c(s1)-c1c(c(-c3ccccc3)nn1-c1ccccc1C(F)(F)F)CC2	< 800
CCCC(=O)n1cc2c(n1)-c1sc(NC(C)=O)nc1CC2	< 800
CC=Cn1ncc2c1-c1sc(NC(C)=O)nc1CC2	< 800
